According to US20230390310A1, “PERSONALIZED, PRECISE, CONSISTENT BOTANICAL FORMULATIONS ON DEMAND” (ALTOPA, INC, priority 2022, published 2023):
Entries after “also recorded” stand apart in the source; their conditions may differ.

Assays:
[1] = Patient-reported outcomes, pain and inflammation (Relief); type: in vivo, patients; details: pain / inflammatory conditions (pain and anxiety)
Excerpt: (§1) Relief includes Base Formulations used in connection with more than one patient suffering from pain and/or inflammatory diseases including neuropathic, and nociceptive pain caused by a range of injuries, arthritis, fibromyalgia, fibrosis, shingles, diabetes, and Lyme disease. Some patients suffering from pain were also suffering from COPD. […] For example, in the Table FIG. 1, Base Formulation TF8 has twice as much terpenes as TF7. […] If a patient was experience pain resulting from an inflammatory condition, such as COPD, then it was not necessary to include THC in the patient's formulations. However, if the patient was suffering from a type of pain such as nociceptive or neuropathic, the use of THC was beneficial. Increasing alpha pinene will be beneficial for patients with COPD.
In addition, even when a patient was reporting good symptom relief, patient dosages were titrated up, including both dosing frequency and dose size, to determine whether better relief could be achieved. […] Thereafter, the HCP would revert the formulation back to the previous dosage and constituent amounts. Treatment then continues forward at that reverted level.
(§2) FIG. 10 is a Pain Management Table, FIG. 11 is an Insomnia Table, FIG. 12 is a Cancer Treatment Support Table, FIG. 13 is an Anxiety, Depression, PTSD Management Table, FIG. 14 is a Chronic Obstructive Pulmonary Disease (COPD) Table, and FIG. 15 is a Irritable Bowel Syndrome Table. These are symptom-specific tables which summarize the pharmaceutical compositions where two or more patients, grouped by specific composition have reported moderate to substantial symptom improvement with the use of the specified composition for periods of use ranging from 1 to 24 months. With respect to the Tables in FIGS. 10-15, the amounts specified in the tables represent the mass in milligrams (mg) per 1.0 milliliter (mL). Dosing protocols vary and may involve a dosing volume ranging from 0.1 ml to 1 ml with a frequency of once, twice or three times a day (QD, BID, or TID, respectively), and in some cases used on an as-needed basis.

[2] = Patient-reported outcomes, gastrointestinal disorders (Wisdom); type: in vivo, patients; details: 15-100 mg/mL added
Excerpt: Studies have shown that the Wisdom BASE formulations relieve symptoms associated with gastrointestinal disorders, such as IBS and others.
as §2

[3] = Patient-reported side effects and tolerability
[4] = Patient-reported outcomes, insomnia and sleep (Rest); type: in vivo, patients; details: THC small amount (0.25-10 mg/ml); terpenes increased by 0.25-3.5 mg/mL
Excerpt: as §2

[5] = Patient-reported outcomes, COPD; type: in vivo; details: patients suffering from COPD
Excerpt: as §1
(§3) FIG. 10 is a Pain Management Table, FIG. 11 is an Insomnia Table, FIG. 12 is a Cancer Treatment Support Table, FIG. 13 is an Anxiety, Depression, PTSD Management Table, FIG. 14 is a Chronic Obstructive Pulmonary Disease (COPD) Table, and FIG. 15 is a Irritable Bowel Syndrome Table. These are symptom-specific tables which summarize the pharmaceutical compositions where two or more patients, grouped by specific composition have reported moderate to substantial symptom improvement with the use of the specified composition for periods of use ranging from 1 to 24 months. […]

[6] = Patient-reported outcomes, anxiety, depression, PTSD (Calm / Serenity); type: in vivo, patients; details: people with anxiety
Excerpt: FIGS. 2 and 3 show Oblend® Treatment Family (Oblend Tx) Calm formulations and Oblend Tx Serenity formulations. These tables include base formulations (BASE) for subjects suffering from anxiety, depression, and PTSD. The BASE Formulation is selected from Calm or Serenity Tables based on the subject's symptoms.
Some patients respond well to LIM and LOL while others respond better to more sedative terpenes like MYR and TPN. In most cases, patients with anxiety respond well to Calm Tx formulations. […] If a patient suffering from anxiety initially began treatment with the Calm Base and experienced some symptom relief, then, this patient continued taking Calm formulations from Calm or a personalized formulation with a similar terpene profile as Calm.
as §3

Compound | patient outcomes on adding the ingredient to the formulation [1] | sleep on adding or increasing the ingredient [4] | also measured
CCCCCc1cc(O)c2c(c1)OC(C)(CCC=C(C)C)C=C2 (stereo not shown) [CBC, Cannabichromene] | in some cases, patients reported a reduction in symptoms; also recorded: favorable patient outcomes improved dramatically |  | 
C=C(C)[C@@H]1CCC(C)=C[C@H]1c1c(O)cc(CCCCC)cc1O [CBD, Cannabidiol] |  |  | gastrointestinal symptom relief on adding the ingredient [2]: improved symptom relief
CCCCCc1cc(O)c(C/C=C(\C)CCC=C(C)C)c(O)c1 [CBG, Cannabigerol] | some patients reported a reduction in symptoms; also recorded: favorable patient outcomes increased |  | 
CCCCCc1cc(O)c2c(c1)OC(C)(C)c1ccc(C)cc1-2 [CBN, Cannabinol] | favorable patient outcomes increased |  | 
CCCCCc1cc(O)c2c(c1)OC(C)(C)C1CC=C(C)CC21 (stereo not shown) [Delta-8, delta-8-tetrahydrocannabinol] |  |  | side-effects compared with Delta-9 THC ([3]; according to most patients): fewer side-effects
CCCCCc1cc(O)c2c(c1)OC(C)(C)[C@@H]1CCC(C)=C[C@@H]21 [THC, Tetrahydrocannabinol, reference compound] | improved pain relief | patients were able to fall asleep; also recorded: improves sleep | 
CC1=CCC2CC1C2(C)C (stereo not drawn) [alpha-pinene, Alpha Pinene] |  |  | COPD outcomes on increasing the terpene [5]: significantly improved outcomes
C=C1CC/C=C(\C)CC[C@@H]2[C@@H]1CC2(C)C [beta Caryophyllene, Beta Caryophyllene] | significant improvement in symptom relief; also recorded: increased patient outcomes |  | COPD outcomes on increasing the terpene [5]: significantly improved outcomes
C=C(C)[C@H]1CC=C(C)CC1 [limonene, Limonene] |  |  | anxiety response to the terpene [6]: make some people more anxious
C=CC(C)(O)CCC=C(C)C (stereo not shown) [linalool, Linalool] |  | improves sleep | 
C=CC(=C)CCC=C(C)C [myrcene, Myrcene] |  | increased the duration and quality of sleep; also recorded: improves sleep | 
C=CC(C)(O)CCC=C(C)CCC=C(C)C (stereo not shown) [nerolidol, Nerolidol] |  | increased the duration and quality of sleep | allergy ([3]; ingredient of most formulations): some patients are allergic
CC1=CCC(=C(C)C)CC1 [terpinolene, Terpinolene] |  | increased the duration and quality of sleep; also recorded: improves sleep | 
